# Target: Flag-DOR (murine DOR tagged with Flag at the N-terminus) (Mus musculus, UniProt P32300)
# Sequence (P32300 whole entry): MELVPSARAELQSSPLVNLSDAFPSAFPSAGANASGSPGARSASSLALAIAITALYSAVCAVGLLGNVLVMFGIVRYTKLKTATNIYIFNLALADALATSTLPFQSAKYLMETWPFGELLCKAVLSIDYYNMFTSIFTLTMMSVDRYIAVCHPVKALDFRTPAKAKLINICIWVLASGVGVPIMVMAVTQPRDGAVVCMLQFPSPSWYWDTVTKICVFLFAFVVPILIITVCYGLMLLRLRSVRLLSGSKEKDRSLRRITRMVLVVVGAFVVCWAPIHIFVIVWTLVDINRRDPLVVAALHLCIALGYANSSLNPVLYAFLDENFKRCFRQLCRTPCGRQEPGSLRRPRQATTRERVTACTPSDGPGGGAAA
structure (smiles),measurement,value
"C=CCN1C[C@H](C)N([C@H](c2ccc(C(=O)N(CC)CC)cc2)c2cccc(OC)c2)C[C@H]1C [SNC-80, (1)-4-[(αR)-α-((2S,5R)-4-allyl-2,5-dimethyl-1-piperazinyl)-3-methoxybenzyl]-N,N-diethylbenzamide]",log KA ± SEM (M),−6.58 ± 0.43 log M
